Test results published in patent publication US20140357713A1, “ANTIMICROBIAL COMPOUNDS AND METHODS OF USE” (NexMed Holdings, Inc., priority 2012, published 2014).
Read-outs that look alike come from different tables or passages of the source.

How the values were obtained:
[1] = Solubility (Sol., Table 1); format: physicochemical
[2] = system: Staphulococcus aureus (ATCC 29213); assay: Minimum inhibitory concentration (MIC) assay, Example 33; format: cell-based, Staphylococcus aureus; details: Staphylococcus aureus
Outline: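 Antibacterial MICs come from CLSI-guided broth microdilution in CAMHB at 35° C, using a McFarland 0.5-standardized inoculum diluted 1:100 before 1:2 addition to drug wells.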

Aspergillus niger = assay: Extended time kill study, Example 34 (0 to 24 h); format: cell-based
Description: (§1) Time kill studies. Strain suspensions were prepared as described above for the MIC test, and strain suspensions and compound solutions were mixed in the same volume. Samples were removed at specified times including 0 min, 30 sec, 1 min and 5 mins, were diluted in the test medium and streaked on agar. Colonies were counted after 24 to 48 hrs of incubation.
(§2) The time kill studies of Example 33 were extended for five compounds (Nex-59, Nex-60, Nex-61, Nex-62, and Nex-88) using the same methods at longer time periods and at higher multiples of MIC. Nex-88 is a code number for DDAIP.HCl from a different supplier.

Candida albicans = assay: Extended time kill study, Example 34 (0 to 24 h); format: cell-based
Description: as §1, §2

Staphylococcus aureus = assay: Extended time kill study, Example 34 (0 to 24 h); format: cell-based
Description: as §1, §2

In the case of CCCCCCCCCCCCOC(=O)C(C)NCCN(CC)CC.Cl (stereo not shown) [Nex-62, Dodecyl 2-((2-(diethylamino)ethyl)amino)propanoate dihydrochloride], the Sol. [1] was 48%, the MIC ([2]; ATCC29213, Table 19 summary, read-out: MIC) was 25 µg/mL and the MIC ([2]; ATCC29213, n = 1, read-out: MIC S. aureus) was 25 µg/mL. The MIC ([2]; ATCC29213, n = 2, read-out: MIC S. aureus) was 25 µg/mL, the “Viable counts in Log10 CFU/mL” value (Aspergillus niger; 1 × MIC, 1 h) was 5.53 Log10 CFU/mL and the “Viable counts in Log10 CFU/mL” value (Aspergillus niger; 1 × MIC, 2 h) was 5.51 Log10 CFU/mL. The “Viable counts in Log10 CFU/mL” value (Aspergillus niger; 1 × MIC, 4 h) was 5.15 Log10 CFU/mL, the “Viable counts in Log10 CFU/mL” value (Aspergillus niger; 1 × MIC, 6 h) was 4.78 Log10 CFU/mL and the “Viable counts in Log10 CFU/mL” value (Aspergillus niger; 1 × MIC, 24 h) was 4 Log10 CFU/mL. The “Viable counts in Log10 CFU/mL” value (Aspergillus niger; 1 × MIC, 0 h) was 5.51 Log10 CFU/mL, the “Viable counts in Log10 CFU/mL” value (Aspergillus niger; 2 × MIC, 1 h) was 5.48 Log10 CFU/mL and the “Viable counts in Log10 CFU/mL” value (Aspergillus niger; 2 × MIC, 2 h) was 5.57 Log10 CFU/mL. For the same compound, the “Viable counts in Log10 CFU/mL” value (Aspergillus niger; 2 × MIC, 4 h) was 5.08 Log10 CFU/mL, the “Viable counts in Log10 CFU/mL” value (Aspergillus niger; 2 × MIC, 6 h) was 5.38 Log10 CFU/mL and the “Viable counts in Log10 CFU/mL” value (Aspergillus niger; 2 × MIC, 24 h) was 5.58 Log10 CFU/mL. The “Viable counts in Log10 CFU/mL” value (Aspergillus niger; 2 × MIC, 0 h) was 5.49 Log10 CFU/mL, the “Viable counts in Log10 CFU/mL” value (Aspergillus niger; 4 × MIC, 1 h) was 5.49 Log10 CFU/mL and the “Viable counts in Log10 CFU/mL” value (Aspergillus niger; 4 × MIC, 2 h) was 5.49 Log10 CFU/mL. For the same compound, the “Viable counts in Log10 CFU/mL” value (Aspergillus niger; 4 × MIC, 4 h) was 5.00 Log10 CFU/mL, the “Viable counts in Log10 CFU/mL” value (Aspergillus niger; 4 × MIC, 6 h) was 5.20 Log10 CFU/mL and the “Viable counts in Log10 CFU/mL” value (Aspergillus niger; 4 × MIC, 24 h) was 3.85 Log10 CFU/mL. For the same compound, the “Viable counts in Log10 CFU/mL” value (Aspergillus niger; 4 × MIC, 0 h) was 5.56 Log10 CFU/mL, the “Viable counts in Log10 CFU/mL” value (Candida albicans; 1 × MIC, 1 h) was 5.75 Log10 CFU/mL and the “Viable counts in Log10 CFU/mL” value (Candida albicans; 1 × MIC, 2 h) was 5.78 Log10 CFU/mL. For the same compound, the “Viable counts in Log10 CFU/mL” value (Candida albicans; 1 × MIC, 4 h) was 6.04 Log10 CFU/mL, the “Viable counts in Log10 CFU/mL” value (Candida albicans; 1 × MIC, 6 h) was 6.21 Log10 CFU/mL and the “Viable counts in Log10 CFU/mL” value (Candida albicans; 1 × MIC, 24 h) was over 6 Log10 CFU/mL. The “Viable counts in Log10 CFU/mL” value (Candida albicans; 1 × MIC, 0 h) was 5.74 Log10 CFU/mL, the “Viable counts in Log10 CFU/mL” value (Candida albicans; 2 × MIC, 1 h) was 5.68 Log10 CFU/mL and the “Viable counts in Log10 CFU/mL” value (Candida albicans; 2 × MIC, 2 h) was 5.67 Log10 CFU/mL. For the same compound, the “Viable counts in Log10 CFU/mL” value (Candida albicans; 2 × MIC, 4 h) was 5.68 Log10 CFU/mL, the “Viable counts in Log10 CFU/mL” value (Candida albicans; 2 × MIC, 6 h) was 5.58 Log10 CFU/mL and the “Viable counts in Log10 CFU/mL” value (Candida albicans; 2 × MIC, 24 h) was over 6 Log10 CFU/mL. The “Viable counts in Log10 CFU/mL” value (Candida albicans; 2 × MIC, 0 h) was 5.76 Log10 CFU/mL, the “Viable counts in Log10 CFU/mL” value (Candida albicans; 4 × MIC, 1 h) was 5.32 Log10 CFU/mL and the “Viable counts in Log10 CFU/mL” value (Candida albicans; 4 × MIC, 2 h) was 5.33 Log10 CFU/mL. The “Viable counts in Log10 CFU/mL” value (Candida albicans; 4 × MIC, 4 h) was 5.00 Log10 CFU/mL, the “Viable counts in Log10 CFU/mL” value (Candida albicans; 4 × MIC, 6 h) was 4.53 Log10 CFU/mL and the “Viable counts in Log10 CFU/mL” value (Candida albicans; 4 × MIC, 24 h) was under 1 Log10 CFU/mL. For the same compound, the “Viable counts in Log10 CFU/mL” value (Candida albicans; 4 × MIC, 0 h) was 5.69 Log10 CFU/mL, the “Viable counts, Staphylococcus aureus time kill study” value (Staphylococcus aureus; 1 × MIC, 1 h) was 6.00 Log10 CFU/mL and the “Viable counts, Staphylococcus aureus time kill study” value (Staphylococcus aureus; 1 × MIC, 2 h) was 5.66 Log10 CFU/mL. The “Viable counts, Staphylococcus aureus time kill study” value (Staphylococcus aureus; 1 × MIC, 4 h) was 4.70 Log10 CFU/mL, the “Viable counts, Staphylococcus aureus time kill study” value (Staphylococcus aureus; 1 × MIC, 6 h) was 4.48 Log10 CFU/mL and the “Viable counts, Staphylococcus aureus time kill study” value (Staphylococcus aureus; 1 × MIC, 24 h) was under 1 Log10 CFU/mL. The “Viable counts, Staphylococcus aureus time kill study” value (Staphylococcus aureus; 1×MIC, time 0) was 6.23 Log10 CFU/mL, the “Viable counts, Staphylococcus aureus time kill study” value (Staphylococcus aureus; 2 × MIC, 1 h) was 5.30 Log10 CFU/mL and the “Viable counts, Staphylococcus aureus time kill study” value (Staphylococcus aureus; 2 × MIC, 2 h) was under 3 Log10 CFU/mL. For the same compound, the “Viable counts, Staphylococcus aureus time kill study” value (Staphylococcus aureus; 2 × MIC, 4 h) was under 3 Log10 CFU/mL, the “Viable counts, Staphylococcus aureus time kill study” value (Staphylococcus aureus; 2 × MIC, 6 h) was under 3 Log10 CFU/mL and the “Viable counts, Staphylococcus aureus time kill study” value (Staphylococcus aureus; 2 × MIC, 24 h) was under 1 Log10 CFU/mL. The “Viable counts, Staphylococcus aureus time kill study” value (Staphylococcus aureus; 2 × MIC, time 0) was 6.25 Log10 CFU/mL, the “Viable counts, Staphylococcus aureus time kill study” value (Staphylococcus aureus; 4 × MIC, 1 h) was 5.30 Log10 CFU/mL and the “Viable counts, Staphylococcus aureus time kill study” value (Staphylococcus aureus; 4 × MIC, 2 h) was under 3 Log10 CFU/mL. The “Viable counts, Staphylococcus aureus time kill study” value (Staphylococcus aureus; 4 × MIC, 4 h) was under 3 Log10 CFU/mL, the “Viable counts, Staphylococcus aureus time kill study” value (Staphylococcus aureus; 4 × MIC, 6 h) was under 3 Log10 CFU/mL and the “Viable counts, Staphylococcus aureus time kill study” value (Staphylococcus aureus; 4 × MIC, 24 h) was under 1 Log10 CFU/mL. For the same compound, the “Viable counts, Staphylococcus aureus time kill study” value (Staphylococcus aureus; 4 × MIC, time 0) was 6.20 Log10 CFU/mL.
